Tests used:
HeLa cells = experiment: Assay 1 cell proliferation measurement (CTG, 72 h), HeLa; type: cell-based, human; details: Homo sapiens, HeLa; Assay 1, 72 h, Cell Titer Glo; read-out: HeLa IC50 [nM] (Cervical cancer)
In short: (§1)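 Growth inhibition relative to a 0 h baseline plate and 0.3% DMSO control, with IC50 fitted by 4-parameter curve. Compound exposure lasted 72 h at 37 °C across a 2.5-fold, 10-step series starting generally at 100 nM final.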

SK-MEL-3 cells = experiment: Assay 1 cell proliferation measurement (CTG, 72 h), SK-MEL-3; type: cell-based, human; details: Homo sapiens, SK-MEL3; Assay 1, 72 h, Cell Titer Glo; read-out: SK-MEL-3 IC50 [nM] (melanoma)
In short: as §1

human full length PDE3A = human full length PDE3A (Homo sapiens (Human), UniProt Q14432); experiment: Assay 4 PDE3A enzyme inhibition (3H-cAMP SPA); type: biochemical; details: Sf9 cell extract
human full length PDE3A, sequence (Q14432 whole entry): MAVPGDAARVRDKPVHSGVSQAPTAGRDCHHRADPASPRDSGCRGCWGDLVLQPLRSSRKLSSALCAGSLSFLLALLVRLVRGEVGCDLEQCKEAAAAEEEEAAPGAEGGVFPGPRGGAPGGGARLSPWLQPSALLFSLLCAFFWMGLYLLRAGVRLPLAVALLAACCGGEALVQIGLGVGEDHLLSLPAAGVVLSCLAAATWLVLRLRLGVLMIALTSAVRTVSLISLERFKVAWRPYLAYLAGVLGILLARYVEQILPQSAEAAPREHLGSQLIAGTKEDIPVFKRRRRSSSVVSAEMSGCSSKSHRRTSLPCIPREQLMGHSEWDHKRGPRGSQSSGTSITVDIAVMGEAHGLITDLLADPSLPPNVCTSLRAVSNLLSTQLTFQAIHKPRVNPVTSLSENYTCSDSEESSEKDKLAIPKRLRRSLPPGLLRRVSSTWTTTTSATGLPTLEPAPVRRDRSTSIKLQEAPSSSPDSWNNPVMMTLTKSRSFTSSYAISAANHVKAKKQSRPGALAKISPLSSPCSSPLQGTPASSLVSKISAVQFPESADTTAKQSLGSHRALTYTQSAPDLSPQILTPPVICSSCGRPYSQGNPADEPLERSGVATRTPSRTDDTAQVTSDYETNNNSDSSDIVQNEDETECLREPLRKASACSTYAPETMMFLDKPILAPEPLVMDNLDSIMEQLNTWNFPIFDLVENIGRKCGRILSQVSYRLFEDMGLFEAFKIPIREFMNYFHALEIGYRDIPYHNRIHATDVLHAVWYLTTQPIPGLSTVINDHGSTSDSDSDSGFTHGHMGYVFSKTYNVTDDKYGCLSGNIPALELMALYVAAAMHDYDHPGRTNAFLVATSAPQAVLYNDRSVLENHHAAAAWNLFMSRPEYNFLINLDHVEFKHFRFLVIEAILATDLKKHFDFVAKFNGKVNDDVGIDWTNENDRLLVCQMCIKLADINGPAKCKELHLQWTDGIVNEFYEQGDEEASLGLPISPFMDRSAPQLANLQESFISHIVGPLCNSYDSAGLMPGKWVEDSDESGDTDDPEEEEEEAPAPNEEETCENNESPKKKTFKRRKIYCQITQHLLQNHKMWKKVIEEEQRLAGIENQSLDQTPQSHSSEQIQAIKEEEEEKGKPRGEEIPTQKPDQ
In short: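 Enzyme: Sf9 extract with overexpressed full-length PDE3A; substrate [8-3H]cAMP, 0.025 μCi/well; 60 min, room temperature, Tris/HCl pH 7.5 buffer with MgCl2, EDTA, BSA.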

human full length PDE3B = human full length PDE3B (Homo sapiens (Human), UniProt Q13370); experiment: Assay 5 PDE3B enzyme inhibition (3H-cAMP SPA); type: biochemical; details: Sf9 cell extract
human full length PDE3B, sequence (Q13370 whole entry): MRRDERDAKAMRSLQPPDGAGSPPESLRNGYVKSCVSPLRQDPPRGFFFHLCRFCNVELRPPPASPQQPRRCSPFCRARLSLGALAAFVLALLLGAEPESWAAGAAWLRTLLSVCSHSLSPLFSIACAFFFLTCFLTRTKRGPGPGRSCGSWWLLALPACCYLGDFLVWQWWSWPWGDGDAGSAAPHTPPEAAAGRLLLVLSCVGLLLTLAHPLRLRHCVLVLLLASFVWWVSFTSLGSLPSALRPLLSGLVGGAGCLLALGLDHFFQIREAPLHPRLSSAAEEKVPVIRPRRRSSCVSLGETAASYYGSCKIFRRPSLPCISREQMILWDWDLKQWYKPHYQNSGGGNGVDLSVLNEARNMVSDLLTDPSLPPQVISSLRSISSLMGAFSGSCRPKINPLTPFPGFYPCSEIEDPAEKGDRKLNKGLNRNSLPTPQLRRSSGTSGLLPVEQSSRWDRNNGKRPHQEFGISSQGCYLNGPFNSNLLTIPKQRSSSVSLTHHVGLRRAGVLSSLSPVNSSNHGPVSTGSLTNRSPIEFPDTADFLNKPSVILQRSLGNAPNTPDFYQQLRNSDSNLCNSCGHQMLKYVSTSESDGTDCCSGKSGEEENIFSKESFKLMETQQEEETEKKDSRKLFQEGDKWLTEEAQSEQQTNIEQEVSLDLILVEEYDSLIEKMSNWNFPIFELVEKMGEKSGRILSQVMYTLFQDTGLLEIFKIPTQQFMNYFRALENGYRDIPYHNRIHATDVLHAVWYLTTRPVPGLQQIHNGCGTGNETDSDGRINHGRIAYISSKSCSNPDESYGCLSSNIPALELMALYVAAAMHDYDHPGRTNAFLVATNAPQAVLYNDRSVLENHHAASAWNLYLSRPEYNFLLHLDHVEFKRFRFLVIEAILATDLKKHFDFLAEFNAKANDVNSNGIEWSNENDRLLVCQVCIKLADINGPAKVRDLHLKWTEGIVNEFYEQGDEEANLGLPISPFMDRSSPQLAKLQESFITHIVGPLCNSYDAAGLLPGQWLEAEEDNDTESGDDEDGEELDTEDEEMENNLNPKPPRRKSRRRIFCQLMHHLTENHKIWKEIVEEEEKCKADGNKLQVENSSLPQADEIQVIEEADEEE
In short: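 Sf9 cell extract expressing human full-length PDE3B, diluted for linear kinetics (<70% substrate use), in 50 mM Tris/HCl pH 7.5, 8.3 mM MgCl2, 1.7 mM EDTA. [8-3H]cAMP substrate, 60 min at room temperature; stopped with yttrium SPA beads, scintillation counting. IC50 from sigmoidal activity vs log concentration curves.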

| Structure (SMILES) | IC50 (HeLa cells) [nM] | IC50 (SK-MEL-3 cells) [nM] | IC50 (human full length PDE3A) [µM] | IC50 (human full length PDE3B) [µM] |
| --- | --- | --- | --- | --- |
| Cc1ccccc1-c1ccc(C2=NNC(=O)OC2)cc1F [Example 81, 5-(2-Fluoro-2′-methylbiphenyl-4-yl)-3,6-dihydro-2H-1,3,4-oxadiazin-2-one] | 4 | 9 | 0.13 | 0.27 |
| O=C1NN=C(c2ccc(-c3ccc(F)cc3Cl)c(F)c2)CO1 [Example 82, 5-(2′-Chloro-2,4′-difluorobiphenyl-4-yl)-3,6-dihydro-2H-1,3,4-oxadiazin-2-one] | 4 | 9 | 0.2 | 0.32 |
| O=C1NN=C(c2ccc(C3=CCCC3)c(F)c2)CO1 [Example 83, 5-[4-(Cyclopent-1-en-1-yl)-3-fluorophenyl]-3,6-dihydro-2H-1,3,4-oxadiazin-2-one] | 3 | 6 | 0.1 | 0.25 |
| CCc1ccccc1-c1ccc(C2=NNC(=O)OC2)cc1F [Example 84, 5-(2′-Ethyl-2-fluorobiphenyl-4-yl)-3,6-dihydro-2H-1,3,4-oxadiazin-2-one] | 19 | 48 | 0.15 | 0.32 |
| COc1ccc(-c2ccc(C3=NNC(=O)OC3)cc2F)cn1 [Example 85, 5-[3-Fluoro-4-(6-methoxypyridin-3-yl)phenyl]-3,6-dihydro-2H-1,3,4-oxadiazin-2-one] | 7 | 13 | 0.033 | 0.078 |
| Cc1cc(-c2ccc(C3=NNC(=O)OC3)cc2F)ccc1F [Example 86, 5-(2,4′-Difluoro-3′-methylbiphenyl-4-yl)-3,6-dihydro-2H-1,3,4-oxadiazin-2-one] | 6 | 25 | 0.084 | 0.21 |
| Cc1cccc(-c2ccc(C3=NNC(=O)OC3)cc2F)c1 [Example 87, 5-(2-Fluoro-3′-methylbiphenyl-4-yl)-3,6-dihydro-2H-1,3,4-oxadiazin-2-one] | 10 | 32 | 0.081 | 0.23 |
| Cc1ccc(-c2ccc(C3=NNC(=O)OC3)cc2F)cc1 [Example 88, 5-(2-Fluoro-4′-methylbiphenyl-4-yl)-3,6-dihydro-2H-1,3,4-oxadiazin-2-one] | 2 | 6 | 0.11 | 0.25 |
| O=C1NN=C(c2ccc(-c3ccccc3)c(F)c2)CO1 [Example 89, 5-(2-Fluorobiphenyl-4-yl)-3,6-dihydro-2H-1,3,4-oxadiazin-2-one] | 2 | 5 | 0.11 | 0.14 |
| Nc1cc(-c2ccc(C3=NNC(=O)OC3)cc2F)ccn1 [Example 90, 5-[4-(2-Aminopyridin-4-yl)-3-fluorophenyl]-3,6-dihydro-2H-1,3,4-oxadiazin-2-one] | 16 | 30 | 0.043 | 0.1 |
| Nc1cccc(-c2ccc(C3=NNC(=O)OC3)cc2F)c1 [Example 91, 5-[4-(3-Aminophenyl)-3-fluoro-phenyl]-3,6-dihydro-1,3,4-oxadiazin-2-one] | 14 | 17 | 0.068 | 0.085 |
| O=C1NN=C(c2ccc(-c3ccncc3)c(F)c2)CO1 [Example 93, 5-[3-Fluoro-4-(pyridin-4-yl)phenyl]-3,6-dihydro-2H-1,3,4-oxadiazin-2-one] | 7 | 13 | 0.05 | 0.1 |
| Cc1ncc(-c2ccc(C3=NNC(=O)OC3)cc2F)cn1 [Example 94, 5-[3-Fluoro-4-(2-methylpyrimidin-5-yl)phenyl]-3,6-dihydro-2H-1,3,4-oxadiazin-2-one] | 16 | 36 | 0.091 | 0.28 |
| COc1cc(-c2ccc(C3=NNC(=O)OC3)cc2F)ccn1 [Example 95, 5-[3-Fluoro-4-(2-methoxypyridin-4-yl)phenyl]-3,6-dihydro-2H-1,3,4-oxadiazin-2-one] | 33 | > 100 | 0.037 | 0.079 |
| Cc1ncccc1-c1ccc(C2=NNC(=O)OC2)cc1F [Example 96, 5-[3-Fluoro-4-(2-methylpyridin-3-yl)phenyl]-3,6-dihydro-2H-1,3,4-oxadiazin-2-one] | 18 | 40 | 0.05 | 0.11 |
| Cc1ccc(-c2ccc(C3=NNC(=O)OC3)cc2F)cn1 [Example 97, 5-[3-Fluoro-4-(6-methylpyridin-3-yl)phenyl]-3,6-dihydro-2H-1,3,4-oxadiazin-2-one] | 5 | 8 | 0.065 | 0.13 |
| O=C1NN=C(c2ccc(-c3cc(F)c(F)cc3F)c(F)c2)CO1 [Example 98, 5-(2,2′,4′,5′-Tetrafluoro[1,1′-biphenyl]-4-yl)-3,6-dihydro-2H-1,3,4-oxadiazin-2-one] | 5 | 8 | 0.1 | 0.12 |
| O=C1NN=C(c2ccc(-c3ccc(F)c(F)c3F)c(F)c2)CO1 [Example 99, 5-(2,2′,3′,4′-Tetrafluoro[1,1′-biphenyl]-4-yl)-3,6-dihydro-2H-1,3,4-oxadiazin-2-one] | 5 | 11 | 0.088 | 0.1 |
| O=C1NN=C(c2ccc(-c3cc(F)ccc3F)c(F)c2)CO1 [Example 100, 5-(2,2′,5′-Trifluoro[1,1′-biphenyl]-4-yl)-3,6-dihydro-2H-1,3,4-oxadiazin-2-one] | 5 | 9 | 0.048 | 0.066 |
| N#Cc1ccc(-c2ccc(C3=NNC(=O)OC3)cc2F)cc1 [Example 101, 2′-Fluoro-4′-(2-oxo-3,6-dihydro-2H-1,3,4-oxadiazin-5-yl)[1,1′-biphenyl]-4-carbonitrile] | 2 | 4 | 0.028 | 0.039 |
| Nc1ccccc1-c1ccc(C2=NNC(=O)OC2)cc1F [Example 102, 5-(2′-Amino-2-fluoro[1,1′-biphenyl]-4-yl)-3,6-dihydro-2H-1,3,4-oxadiazin-2-one] | 23 | 40 | 0.17 | 0.28 |
| Cc1ccc(-c2ccc(C3=NNC(=O)OC3)cc2F)cc1N [Example 103, 5-(3′-Amino-2-fluoro-4′-methyl[1,1′-biphenyl]-4-yl)-3,6-dihydro-2H-1,3,4-oxadiazin-2-one] | 3 | 6 | 0.066 | 0.14 |
| O=C1NN=C(c2ccc(-c3cccc(O)c3)c(F)c2)CO1 [Example 104, 5-(2-Fluoro-3′-hydroxy[1,1′-biphenyl]-4-yl)-3,6-dihydro-2H-1,3,4-oxadiazin-2-one] | 37 | 17 | 0.035 | 0.058 |
| O=C1NN=C(c2ccc(-c3ccc(O)cc3)c(F)c2)CO1 [Example 105, 5-(2-Fluoro-4′-hydroxy[1,1′-biphenyl]-4-yl)-3,6-dihydro-2H-1,3,4-oxadiazin-2-one] | 8 | 15 | 0.048 | 0.1 |
| O=C1NN=C(c2ccc(-c3ccccc3O)c(F)c2)CO1 [Example 106, 5-(2-Fluoro-2′-hydroxy[1,1′-biphenyl]-4-yl)-3,6-dihydro-2H-1,3,4-oxadiazin-2-one] | 9 | 16 | 0.12 | 0.24 |

Source: patent publication US11427553B2, “Dihydrooxadiazinones” (Bayer Aktiengesellschaft, priority 2017, dated 2022)
